# From patent publication US10556860B2, “hTERT modulators and methods of use” (Arizona Board of Regents on Behalf of the University of …, priority 2015, dated 2020)
# What was measured:
# [1] = biological target: G146A 5-12 G-quadruplex of hTERT core promoter; assay: FRET assay for Kd, G146A probe; format: binding, human
# Method: FRET assay for compound screening and determination of Kd value. FRET probes of WT, G124/125A, and G146A of the 5-12 G-quadruplex were synthesized and labeled with FAM (Ex. 490 nm/Em. 520 nm) and TAMRA (Ex. 560 nm/Em. 580 nm) at each end by MGW Operon Inc. The WT probe (50 nM) was annealed in a buffer containing 10 mM Tris-HCl (pH 7.5) and 5 mM KCl by heating at 95° C. for 5 min and slowly cooling to room temperature. Compounds (50 μM) and probe were incubated for 1 h at room temperature. The same volume of DMSO served as a control. For Kd value determination, the WT, G124/125A, and G146A probes were annealed, and then several concentrations of compound were treated for 1 h at room temperature. Dose-dependent fluorescence intensity at 520 nm was measured by a microplate reader (BioTek Synergy HT). The data were corrected with the blank signal of buffer and compound. The relative fluorescence intensity compared to DMSO was used for binding curve fitting to determine Kd value using GraphPad Prism software.
# The hTERT core promoter region includes 12 runs of consecutive guanines that form two G-quadruplexes in tandem on the G-rich strand. […] When the G-quadruplex is folded, two fluorophores are in proximity, which leads to a decrease in FAM fluorescence. […]
# [2] = tested on: G124/125A 5-12 G-quadruplex; assay: CD kinetics, temperature-jump, G124/125A; format: biochemical, human; details: 2 equiv
# Method: FIGS. 10A and 10B are a set of graphs showing (A) comparison of kinetics of initial folding rate of the WT 5-12 G-quadruplex with GTC365 and BRACO-19 by the temperature-jump method. (B) Enhanced initial folding rate of the 5-12 G-quadruplexes carrying different hTERT mutants by GTC365. The time-course CD signal of preheated oligo with compound or DMSO in a buffer containing 10 mM Tris-HCl (pH 7.5) and 5 mM KCl was monitored at 262 nm and 25° C.
# For the kinetics analysis using the temperature-jump method, theoligo in a buffer containing 10 mM Tris-HCl (pH 7.5) was heated forl min at 95° C., and then a mixture of KCl and compound was addedand incubated for 1 min. Meanwhile, the CD cuvette was also heatedat 95° C. As soon as the sample in the CD cuvette at the hightemperature was placed in the CD chamber, a time-dependent CDsignal at 262 nm was recorded immediately. The initial folding ratewas determined by one-phase association curve fitting (eq 1) of thekinetics curve using GraphPad Prism 5: Y=Y0+(Plateau−Y0)*(1−e^−kx) (1) where Y is the CD signal at any time point x, Y0 is the Y value whentime (x) is zero, plateau is the Y value at infinite time, and k is the rateconstant.
# To evaluate the comparative effects of GTC365 relative to BRACO-19 on the cooperative folding process, we carried out two different experiments. […]
# [3] = tested on: hTERT mRNA in melanoma cell line (UACC-903); assay: qPCR of hTERT expression in G124A mutant melanoma cell line; format: cell-based, human; details: 5 μM, 72 h
# Method: FIGS. 13A-13C are a set of graphs showingselective reduction in viability (A) and hTERT expression (B) in melanoma cells carrying hTERT core promotor mutations. NHM-002 (normal human melanocytes) and a G124A mutant cell line were treated with vehicle, 1.25, 2.5, and 5 μM GTC365 for 72 h. Viability was reduced in hTERT mutant melanoma cells by 50% (left). […] (C) Differential response to GTC365 in WT and promoter mutant cell lines.
# Next, to assess the selectivity of GTC365 for hTERT-dependent cancer cells relative to normal precursorcells, we compared the effects of a range of […] on viability at 72 h in normal humanmelanocytes (NHM-002) relative to those of UACC-903, aG124A mutant (FIG. 13A). […] To confirm that the reduction in cell viability was aresult of hTERT downregulation, we performed reverse transcription and qPCR to measure the mRNA level of hTERT expression in cells treated with DMSO or 5 μMGTC365. hTERT expression was reduced by 41% in themelanoma cell line after 72 h but was undetectable in normalmelanocytes, even in the absence of GTC365 (FIG. 13B). Finally, tobroadly assess the selectivity of GTC365 for hTERT promotermutant versus WT cells, we conducted a 6-point 72 h MTSproliferation assay to determine EC50s in 14 additional melanoma cell lines with characterized TERT promoter status([…]) (FIG. 13C). […]
structure (smiles),measurement,setting,value
N=C(N)NCCCS(=O)(=O)Nc1ccc(Nc2c3ccccc3nc3cc([N+](=O)[O-])ccc23)cc1 [GTC365],Kd value higher than WT and G124/125A,[1],1.5 fold
same,increase of initial folding rate,[2],0.042 s⁻¹
same,reduction of hTERT expression (mRNA),[3],41%
